In ChEMBL document CHEMBL1687783, “Prevalence and dissemination of oqxAB in Escherichia coli isolates from animals, farmworkers, and the environment” (2010):
Converted amounts (≈) assume the structure as drawn.

Columns and labels:
Escherichia coli [1] = experiment: Antimicrobial activity against oqxAB positive Escherichia coli C600 X1B1-T transconjugant by CLSI agar dilution method
Escherichia coli [2] = experiment: Antimicrobial activity against oqxAB positive Escherichia coli C600 W322-T transconjugant by CLSI agar dilution method; assay type: functional
Escherichia coli [3] = experiment: Antimicrobial activity against Escherichia coli C600 ST2-T transconjugant harboring oqxAB, qnrB6 and aac(6')-Ib-cr genes by CLSI agar dilution method; assay type: functional
Escherichia coli [4] = experiment: Antimicrobial activity against oqxAB positive Escherichia coli C600 SP8-T transconjugant by CLSI agar dilution method; assay type: functional
Escherichia coli [5] = experiment: Antimicrobial activity against oqxAB positive Escherichia coli C600 G062-T transconjugant by CLSI agar dilution method
Escherichia coli [6] = experiment: Antimicrobial activity against oqxAB positive Escherichia coli C600 SW8-T transconjugant by CLSI agar dilution method; assay type: functional
Escherichia coli [7] = experiment: Antimicrobial activity against oqxAB positive Escherichia coli C600 G262-T transconjugant by CLSI agar dilution method
Escherichia coli [8] = experiment: Antimicrobial activity against oqxAB positive Escherichia coli C600 XT11-T transconjugant by CLSI agar dilution method
Escherichia coli [9] = experiment: Antimicrobial activity against Escherichia coli DH5[alpha] by CLSI agar dilution method
Escherichia coli [10] = experiment: Antimicrobial activity against oqxAB positive Escherichia coli C600 D83-T transconjugant by CLSI agar dilution method; assay type: functional
Escherichia coli [11] = experiment: Antimicrobial activity against oqxAB positive Escherichia coli C600 G375-T transconjugant by CLSI agar dilution method; assay type: functional
Escherichia coli [12] = experiment: Antimicrobial activity against oqxAB positive Escherichia coli C600 W191-T transconjugant by CLSI agar dilution method; assay type: functional
Escherichia coli [13] = experiment: Antimicrobial activity against oqxAB positive Escherichia coli C600 W245-T transconjugant by CLSI agar dilution method; assay type: functional
Escherichia coli [14] = experiment: Antimicrobial activity against Escherichia coli C600 by CLSI agar dilution method
Escherichia coli [15] = experiment: Antimicrobial activity against oqxAB positive Escherichia coli C600 W281-T transconjugant by CLSI agar dilution method
Escherichia coli [16] = experiment: Antimicrobial activity against oqxAB positive Escherichia coli DH5[alpha] harboring pMD18-T::oqxAB by CLSI agar dilution method; assay type: functional

Row | Compound | MIC (Escherichia coli [1]) [µg/mL] | MIC (Escherichia coli [2]) [µg/mL] | MIC (Escherichia coli [3]) [µg/mL] | MIC (Escherichia coli [4]) [µg/mL] | MIC (Escherichia coli [5]) [µg/mL] | MIC (Escherichia coli [6]) [µg/mL] | MIC (Escherichia coli [7]) [µg/mL] | MIC (Escherichia coli [8]) [µg/mL] | MIC (Escherichia coli [9]) [µg/mL] | MIC (Escherichia coli [10]) [µg/mL] | MIC (Escherichia coli [11]) [µg/mL] | MIC (Escherichia coli [12]) [µg/mL] | MIC (Escherichia coli [13]) [µg/mL] | MIC (Escherichia coli [14]) [µg/mL] | MIC (Escherichia coli [15]) [µg/mL] | MIC (Escherichia coli [16]) [µg/mL]
1 | CC1(C)S[C@@H]2[C@H](NC(=O)[C@H](N)c3ccccc3)C(=O)N2[C@H]1C(=O)O [AMPICILLIN] | 16 (≈ 45.8 µM) | > 128 | 4 (≈ 11.4 µM) | > 128 | > 128 | > 128 | 8 (≈ 22.9 µM) | > 128 | > 128 | 16 (≈ 45.8 µM) | 16 (≈ 45.8 µM) | > 128 | > 128 | 4 (≈ 11.4 µM) | > 128 | 
2 | O=C(N[C@H](CO)[C@H](O)c1ccc([N+](=O)[O-])cc1)C(Cl)Cl [CHLORAMPHENICOL] | 128 (≈ 396 µM) | 64 (≈ 198 µM) | 32 (≈ 99 µM) | 64 (≈ 198 µM) | 32 (≈ 99 µM) | 128 (≈ 396 µM) | 128 (≈ 396 µM) | 128 (≈ 396 µM) | 4 (≈ 12.4 µM) | 32 (≈ 99 µM) | 32 (≈ 99 µM) | 128 (≈ 396 µM) | 64 (≈ 198 µM) | 4 (≈ 12.4 µM) | 128 (≈ 396 µM) | 64 (≈ 198 µM)
3 | CCN1CCN(c2cc3c(cc2F)c(=O)c(C(=O)O)cn3C2CC2)CC1 [ENROFLOXACIN] | 0.125 (≈ 0.348 µM) | 0.125 (≈ 0.348 µM) | 2 (≈ 5.56 µM) | 0.06 (≈ 0.167 µM) | 0.125 (≈ 0.348 µM) | 0.125 (≈ 0.348 µM) | 0.125 (≈ 0.348 µM) | 0.06 (≈ 0.167 µM) | 0.016 (≈ 0.0445 µM) | 0.06 (≈ 0.167 µM) | 0.125 (≈ 0.348 µM) | 0.125 (≈ 0.348 µM) | 0.06 (≈ 0.167 µM) | 0.016 (≈ 0.0445 µM) | 0.06 (≈ 0.167 µM) | 0.125 (≈ 0.348 µM)
4 | CS(=O)(=O)c1ccc([C@@H](O)[C@@H](CF)NC(=O)C(Cl)Cl)cc1 [FLORFENICOL] | 16 (≈ 44.7 µM) | 16 (≈ 44.7 µM) | 4 (≈ 11.2 µM) | 16 (≈ 44.7 µM) | 16 (≈ 44.7 µM) | 16 (≈ 44.7 µM) | 16 (≈ 44.7 µM) | 16 (≈ 44.7 µM) | 4 (≈ 11.2 µM) | 8 (≈ 22.3 µM) | 16 (≈ 44.7 µM) | 16 (≈ 44.7 µM) | 16 (≈ 44.7 µM) | 2 (≈ 5.58 µM) | 16 (≈ 44.7 µM) | 16 (≈ 44.7 µM)
5 | CC(=O)c1c(C)[n+]([O-])c2ccccc2[n+]1[O-] [MEQUINDOX] | 64 (≈ 293 µM) | 256 (≈ 1170 µM) | 128 (≈ 587 µM) | 256 (≈ 1170 µM) | 128 (≈ 587 µM) | 256 (≈ 1170 µM) | 128 (≈ 587 µM) | 128 (≈ 587 µM) | 4 (≈ 18.3 µM) | 128 (≈ 587 µM) | 256 (≈ 1170 µM) | 128 (≈ 587 µM) | 128 (≈ 587 µM) | 4 (≈ 18.3 µM) | 64 (≈ 293 µM) | 64 (≈ 293 µM)
6 | CCn1cc(C(=O)O)c(=O)c2ccc(C)nc21 [NALIDIXIC ACID] | 16 (≈ 68.9 µM) | 64 (≈ 276 µM) | 256 (≈ 1100 µM) | 32 (≈ 138 µM) | 32 (≈ 138 µM) | 64 (≈ 276 µM) | 16 (≈ 68.9 µM) | 16 (≈ 68.9 µM) | 2 (≈ 8.61 µM) | 8 (≈ 34.4 µM) | 64 (≈ 276 µM) | 16 (≈ 68.9 µM) | 16 (≈ 68.9 µM) | 2 (≈ 8.61 µM) | 16 (≈ 68.9 µM) | 32 (≈ 138 µM)
7 | CCn1cc(C(=O)O)c(=O)c2cc(F)c(N3CCNCC3)cc21 [NORFLOXACIN] | 0.125 (≈ 0.391 µM) | 0.25 (≈ 0.783 µM) | 4 (≈ 12.5 µM) | 0.125 (≈ 0.391 µM) | 0.125 (≈ 0.391 µM) | 0.5 (≈ 1.57 µM) | 0.25 (≈ 0.783 µM) | 0.25 (≈ 0.783 µM) | 0.03 (≈ 0.0939 µM) | 0.125 (≈ 0.391 µM) | 0.25 (≈ 0.783 µM) | 0.125 (≈ 0.391 µM) | 0.125 (≈ 0.391 µM) | 0.03 (≈ 0.0939 µM) | 0.125 (≈ 0.391 µM) | 0.25 (≈ 0.783 µM)
8 | Cc1c(C(=O)NCCO)[n+]([O-])c2ccccc2[n+]1[O-] [OLAQUINDOX] | 256 (≈ 972 µM) | 512 (≈ 1940 µM) | 512 (≈ 1940 µM) | 256 (≈ 972 µM) | 256 (≈ 972 µM) | 512 (≈ 1940 µM) | 256 (≈ 972 µM) | 256 (≈ 972 µM) | 8 (≈ 30.4 µM) | 256 (≈ 972 µM) | 256 (≈ 972 µM) | 256 (≈ 972 µM) | 512 (≈ 1940 µM) | 8 (≈ 30.4 µM) | 128 (≈ 486 µM) | 128 (≈ 486 µM)
9 | CN[C@@H]1[C@H](O[C@H]2[C@H](O[C@H]3[C@H](O)[C@@H](O)[C@H](N=C(N)N)[C@@H](O)[C@@H]3N=C(N)N)O[C@@H](C)[C@]2(O)C=O)O[C@@H](CO)[C@H](O)[C@H]1O [STREPTOMYCIN] | > 520 | > 515 | > 523 | > 524 | > 518 | > 522 | > 517 | > 521 | 4 (≈ 6.88 µM) | > 525 | > 519 | > 514 | > 516 | > 512 | > 513 | 2 (≈ 3.44 µM)
10 | CN(C)[C@@H]1C(O)=C(C(N)=O)C(=O)[C@@]2(O)C(O)=C3C(=O)c4c(O)cccc4[C@@](C)(O)[C@H]3C[C@@H]12 [TETRACYCLINE] | 32 (≈ 72 µM) | 1 (≈ 2.25 µM) | 2 (≈ 4.5 µM) | 2 (≈ 4.5 µM) | 4 (≈ 9 µM) | 1 (≈ 2.25 µM) | 32 (≈ 72 µM) | 64 (≈ 144 µM) | 2 (≈ 4.5 µM) | 4 (≈ 9 µM) | 4 (≈ 9 µM) | 64 (≈ 144 µM) | 1 (≈ 2.25 µM) | 1 (≈ 2.25 µM) | 2 (≈ 4.5 µM) | 4 (≈ 9 µM)
11 | GENTAMICIN |  | 0.125 | 0.25 | 0.25 |  | 32 |  |  |  | 0.25 | 0.25 | 1 | 0.25 |  |  | 0.125
